Source: US9381173B2, “Isolated stereoisomeric forms of (S)2-N(3-O-(propan 2-Ol)-1-propyl-4-hydroxybenzene)-3-phenylpropylamide” (Novaremed Ltd., priority 2011, dated 2016)

Experiments:
[1] = biological target: Lyn A (Homo sapiens, UniProt P07948); assay: Lyn A mobility-shift kinase assay (Caliper LabChip 3000); format: biochemical; conditions: 5 concentrations, duplicate wells; listed as (S,R) enantiomer
Method: (§1) Each compound and concentration was tested in duplicate wells.
(§2) Data points are the averages of duplicate wells. Error bars represent the mean±replicate % activity.

[2] = system: tail flick model for nociceptive pain in mice; assay: Tail flick test for nociceptive pain; format: in vivo; conditions: for Mean latency time Post-treatment: 30 minutes after administration; for Mean latency time Pre-treatment: baseline a day before
Method: In the present study the analgesic effect of the substantially pure enantiomers E1 and E2 was evaluated using the tail flick model for nociceptive pain in mice.
The experiment was performed using male ICR strain 7 weeks old mice (25-27 g) (supplied by Harlan Israel, Ltd.)
Response to pain was assessed using the tail flick method which utilizes an Ugo Basile tail flick instrument. The animal is placed and held gently on the Ugo Basile tail flick (TF) instrument surface with the tail straight back and above a photoelectric cell that served as heat source. The heat source and timer are turned on by a foot pedal press, and automatically switch off when the animal flicks its tail off the emitter. Latency is measured and analyzed as an analgesic effect.
Description of the Study: The baseline tail flick was measured a day before the experiment started. On the day of the experiment, animal body weights were first measured followed by the IP administration of the test items (vehicle, morphine, NRD 13 S E1 and E2). 30 minutes after administration of the test items, the animals were subjected to the tail-flick testing. The tail-flick experiments were followed by blood sampling of all groups. The experiment was terminated after spinal cords and brains of all groups have been collected.
Statistics and Data Evaluation: All parameters are represented as means and standard error of the mean (SEM). Data was analyzed using a two tailed, unpaired T-test to compare each treatment group to the Vehicle treated animals. A two-tailed, paired T-test was used to compare the pre-treatment and post-treatment of each treatment group. Probability values p<0.01 and p<0.05 are considered significant.

[3] = biological target: BLK (Homo sapiens, UniProt P51451); assay: BLK mobility-shift kinase assay (Caliper LabChip 3000); format: biochemical; conditions: 5 concentrations, duplicate wells; listed as (S,R) enantiomer
Method: as §1, §2

[4] = biological target: Lyn B (Homo sapiens, UniProt P07948); assay: Lyn B mobility-shift kinase assay (Caliper LabChip 3000); format: biochemical; conditions: 5 concentrations, duplicate wells; listed as (S,R) enantiomer
Method: as §1, §2

[5] = system: spinal nerve ligation (SNL or Chung) model for neuropathic pain in rats; assay: Spinal nerve ligation (Chung) model, Von Frey test for mechanical allodynia; format: in vivo
Method: The antinociceptive and analgesic activity of E1 in a spinal nerve ligation (SNL or Chung) model for neuropathic pain in rats was evaluated.
On study day 0, all animals underwent Chung surgery, which consisted of an operation where the left L5-L6 spinal nerves were isolated and cut. Fourteen days post surgery the animals were selected using pain threshold results from the Von Frey test. Only animals that indicated signs of mechanical allodynia were included in the study. After the selection process, the animals were grouped and Test Items were administered via IP. The pain response was measured using Von Frey methodology at 2, 5 and 24 hours after Test Item administration on study day 14, and at 2, 5, 24 and 48 hours on study day 21 after 7 days of Test Item administration.
Species: 50 SD young adult male rats, 225-260 g at study initiation (Harlan Laboratories, Israel. Ltd.)
Neuropathic Pain Induction: While under anesthesia using ketamine/xylazine sodium and after the area was shaved, the rat was placed in a prone position and the left paraspinal muscles were separated from the spinous process at the L4-S2 levels. The L6 vertebral transverse process was carefully removed with a small rongeur to visually identify the L5-L6 spinal nerves. The left L5-L6 spinal nerves were cut. The muscle was then closed with 4-0 silk sutures and the skin was closed by a clamp. Following surgery, the rats were returned to the cage and remained under a heating lamp until they awoke.
Inclusion/Exclusion Criteria for Pre-Selection: On post-operative day 14, animals were tested for mechanical allodynia using Von Frey methodology prior to being placed in their experimental groups. Only animals with a pain threshold of ≦26 g for the operated leg were included in the study. In order to form homogenous treatment groups and to adhere to randomization, all the operated rats were grouped according to inclusion/exclusion criteria.
The Von Frey test was performed prior to Test Items' administrations (pre-TI injection) and at 2 and 5 hours after TI administration (post-TI injection) on study days 14 and 21.
Von Frey test was performed prior to TI's administration on study day 15 (24 hours post-TI's administration on study day 14) and on study days 22 and 23 (24 and 48 hours respectively post-TI's administration on study day 21).
Pain Response Evaluation: Pain response was evaluated using Von Frey test for mechanical allodynia.
The Von Frey test for mechanical allodynia is based on applying short pulses of pressure that are not painful to a naive animal. In fact, in order to achieve paw withdrawal from a naive animal, the pressure applied is sometimes higher than 60 g. This often requires the researcher to apply enough pressure with the Von Frey filament to actually lift the paw of the naive animal. However, in disease conditions, the animals are sensitive to much lower pressure and experience pain as a result of a normally non-painful stimulus.
Mechanical Allodynia Evaluation (Von Frey Testing): Allodynic response to tactile stimulation was assessed using the Von Frey apparatus (Touch®).
The rats were placed in an enclosure and positioned on a metal mesh surface, but allowed to move freely. The rats' cabins were covered with red cellophane to diminish environmental disturbances. The test began after cessation of exploratory behavior. The set of Von Frey monofilaments provide an approximate logarithmic scale of actual force and a linear scale of perceived intensity as provided by the manufacturer of the Von Frey apparatus (Ugo Basil). The operating principle: When the tip of a fiber of given length and diameter is pressed against the skin at right angles, the force of application increases as long as the researcher continues to advance the probe until the fiber bends. After the fiber bends, the probe continues to advance, causing the fiber to bend more, but without additional force being applied to the paw. […]

[6] = Body weight in the Chung model study; format: in vivo, rats
Method: Body Weights: Body weight was measured at regular intervals on study days −1 for baseline values and seven days after the surgery (study day 7).

[7] = 150 mg/kg IP (group 2), before first dose
[8] = 150 mg/kg IP on days 14, 15, 21 (group 2)
[9] = 150 mg/kg IP, study day 14, 2 hours
[10] = 150 mg/kg IP, study day 21, 2 hours

Lyn B, sequence (P07948 1-491 isoform P07948-2, species assumed): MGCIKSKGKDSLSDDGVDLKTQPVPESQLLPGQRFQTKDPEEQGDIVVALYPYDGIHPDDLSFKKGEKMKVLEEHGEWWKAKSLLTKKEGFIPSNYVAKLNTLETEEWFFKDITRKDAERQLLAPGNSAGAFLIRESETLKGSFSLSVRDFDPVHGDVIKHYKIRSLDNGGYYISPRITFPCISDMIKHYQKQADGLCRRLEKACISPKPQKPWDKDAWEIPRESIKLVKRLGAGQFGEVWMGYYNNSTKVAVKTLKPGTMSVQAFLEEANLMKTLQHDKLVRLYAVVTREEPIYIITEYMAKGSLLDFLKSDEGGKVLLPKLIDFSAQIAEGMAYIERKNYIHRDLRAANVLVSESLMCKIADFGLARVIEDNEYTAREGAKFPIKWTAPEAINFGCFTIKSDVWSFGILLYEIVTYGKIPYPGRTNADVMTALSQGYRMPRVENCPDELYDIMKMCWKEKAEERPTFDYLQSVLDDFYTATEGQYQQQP
BLK, sequence (P51451 whole entry, species assumed): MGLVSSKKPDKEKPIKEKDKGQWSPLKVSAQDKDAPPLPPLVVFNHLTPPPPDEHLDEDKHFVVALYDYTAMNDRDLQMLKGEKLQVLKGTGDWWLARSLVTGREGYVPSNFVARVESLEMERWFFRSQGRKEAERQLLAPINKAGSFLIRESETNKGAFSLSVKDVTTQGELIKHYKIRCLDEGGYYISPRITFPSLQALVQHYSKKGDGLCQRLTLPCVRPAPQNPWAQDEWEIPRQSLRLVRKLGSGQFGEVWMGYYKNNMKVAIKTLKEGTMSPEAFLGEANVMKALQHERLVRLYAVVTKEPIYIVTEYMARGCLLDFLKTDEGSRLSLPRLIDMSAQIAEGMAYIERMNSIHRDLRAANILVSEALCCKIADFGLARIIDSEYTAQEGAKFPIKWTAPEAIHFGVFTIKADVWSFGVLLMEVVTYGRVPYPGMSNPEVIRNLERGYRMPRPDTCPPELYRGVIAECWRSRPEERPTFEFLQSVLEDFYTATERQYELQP
Lyn A, sequence (P07948 whole entry, species assumed): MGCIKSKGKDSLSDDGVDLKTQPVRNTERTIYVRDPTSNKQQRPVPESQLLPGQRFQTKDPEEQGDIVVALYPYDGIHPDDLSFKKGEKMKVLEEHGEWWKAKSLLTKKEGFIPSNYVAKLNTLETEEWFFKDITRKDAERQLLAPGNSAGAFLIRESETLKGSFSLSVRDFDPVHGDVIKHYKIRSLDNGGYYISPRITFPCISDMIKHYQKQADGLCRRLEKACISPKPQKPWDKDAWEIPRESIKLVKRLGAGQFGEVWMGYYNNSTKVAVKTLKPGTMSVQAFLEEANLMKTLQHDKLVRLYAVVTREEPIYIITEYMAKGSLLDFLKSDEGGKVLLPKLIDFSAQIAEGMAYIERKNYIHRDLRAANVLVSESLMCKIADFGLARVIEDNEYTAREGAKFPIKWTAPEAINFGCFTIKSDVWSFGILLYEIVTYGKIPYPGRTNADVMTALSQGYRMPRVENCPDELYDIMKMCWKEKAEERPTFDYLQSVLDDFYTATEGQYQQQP

CC(O)COCC(Cc1ccc(O)cc1)NC(=O)CCc1ccccc1 [E2, (S)2-N(3-O—((R)propan 2-ol)-1-propyl-4-hydroxybenzene)-3-phenylpropylamide]
modulation of LynA tyrosine kinase activity [1]: inhibited | difference in tail flick latency times ([2]; 10 mg/kg IP): did not cause any statistically significant difference | increase of latency time between pretreatment and post treatment ([2]; 10 mg/kg IP): not statistically significant | reducing pain when compared to the Vehicle ([2]; 10 mg/kg IP): not significantly active in reducing pain | Δ of latency time post- and pre-treatment ([2]; 10 mg/kg IP (groups 4, 6)): 0.63 ± 0.87 s | Mean latency time Post-treatment ([2]; 10 mg/kg IP (groups 4, 6)): 8.93 ± 0.93 s | Mean latency time Pre-treatment ([2]; 10 mg/kg IP (groups 4, 6)): 8.30 ± 0.46 s | conclusion: activity in tail flick study ([2]; dose of 10 mg/kg): not active | pain analgesic in animal models of pain ([2]; summary statement, listed as (S,R) enantiomer): ineffective or less effective | modulation of BLK tyrosine kinase activity [3]: inhibited | modulation of LynB tyrosine kinase activity [4]: inhibited

NCC1(CC(=O)O)CCCCC1 [Gabapentin, reference compound]
delta force right minus left leg, Day 14 Post-treatment 5 hours ([5]; 150 mg/kg IP (group 2)): 48.20 ± 1.85 g | mean Von Frey force, left operated leg, Day 14 Post-treatment 5 hours ([5]; 150 mg/kg IP (group 2)): 11.80 ± 1.85 g | delta force right minus left leg, Day 14 Pretreatment [5, 7]: 50.00 ± 0.88 g | mean Von Frey force, left operated leg, Day 14 Pretreatment [5, 7]: 10.00 ± 0.88 g | difference (delta) force between right healthy leg and left operated leg, Baseline ([5]; 150 mg/kg IP (group 2), before operation): 0.00 ± 0.00 g | mean Von Frey force required for withdrawal of the left operated leg, Baseline ([5]; 150 mg/kg IP (group 2), day -1, before operation): 53.20 ± 4.53 g | delta force right minus left leg, Day 21 Post-treatment 5 hours [5, 8]: 47.40 ± 1.85 g | delta force right minus left leg, Day 21 Post-treatment 24 hours [5, 8]: 46.60 ± 2.29 g | delta force right minus left leg, Day 21 Post-treatment 48 hours [5, 8]: 50.50 ± 0.69 g | delta force right minus left leg, Day 21 Pretreatment [5, 8]: 49.80 ± 0.85 g | mean Von Frey force, left operated leg, Day 21 Post-treatment 5 hours [5, 8]: 12.60 ± 1.85 g | mean Von Frey force, left operated leg, Day 21 Post-treatment 24 hours [5, 8]: 13.40 ± 2.29 g | mean Von Frey force, left operated leg, Day 21 Post-treatment 48 hours [5, 8]: 9.50 ± 0.69 g | mean Von Frey force, left operated leg, Day 21 Pretreatment [5, 8]: 10.20 ± 0.85 g | conclusion: analgesic activity of the positive control ([5]; 150 mg/kg IP, 2 hours after administration on study days 14 and 21): active | conclusion: analgesic activity of the positive control ([5]; 150 mg/kg IP, 5 hours, 24 hours and 48 hours post dosing): no longer detected | inhibition of allodynia compared to the pretreatment value of delta withdrawal force ([5]; 150 mg/kg IP, day 14, 2 hours): inhibited allodynia | inhibition of allodynia compared to the pretreatment value of delta withdrawal force ([5]; 150 mg/kg IP, day 14, 5 hours): not effective | pain relief activity, delta withdrawal force between the two legs vs. Vehicle ([5]; 150 mg/kg IP, day 14 and day 21, 2 hours): significant pain relief activity | inhibition of allodynia compared to the pretreatment value of delta withdrawal force ([5]; 150 mg/kg IP, day 21, 2 hours): effectively inhibited allodynia | inhibition of allodynia (Von Frey) compared to the Vehicle control [5, 9]: inhibited allodynia | inhibition of allodynia (Von Frey) compared to the pretreatment value [5, 9]: inhibited allodynia | inhibition of allodynia (Von Frey) compared to the Vehicle control ([5]; 150 mg/kg IP, study day 14, 5 hours): not effective | inhibition of allodynia (Von Frey) compared to the pretreatment value ([5]; 150 mg/kg IP, study day 14, 24 hours): not effective | inhibition of allodynia (Von Frey) compared to the Vehicle control [5, 10]: effectively inhibited allodynia | inhibition of allodynia (Von Frey) compared to the pretreatment value [5, 10]: inhibited allodynia | inhibition of allodynia (Von Frey) compared to the Vehicle control ([5]; 150 mg/kg IP, study day 21, 5 hours): not effective | duration of analgesic effect post administration ([5]; summary statement): ≤ 5 h | Mean group body weight Day 14 ([6]; 150 mg/kg IP (group 2), before first administration): 283.30 ± 2.53 g | Mean group body weight Day 7 ([6]; 150 mg/kg IP (group 2), before treatment): 255.20 ± 2.83 g | Mean group body weight Baseline ([6]; 150 mg/kg IP (group 2), study day -1, before surgery and treatment): 242.10 ± 2.44 g | Mean group body weight Day 21 [6, 8]: 307.90 ± 3.42 g

CN1CC[C@]23c4c5ccc(O)c4O[C@H]2[C@@H](O)C=C[C@H]3[C@H]1C5 [Morphine, reference compound]
Mean latency time Post-treatment ([2]; 5 mg/kg IP (group 2)): 15.38 ± 1.47 s | Mean latency time Pre-treatment ([2]; 5 mg/kg IP (group 2)): 7.92 ± 0.17 s | Mean latency time Pre-treatment ([2]; 5 mg/kg IP (group 2), listed as morphine): 7.92 ± 0.17 s
